Measured values reported in US9102670B2, “Pyrido-, pyrazo- and pyrimido-pyrimidine derivatives as mTOR inhibitors” (KuDOS Pharmaceuticals Limited, priority 2006, dated 2015).

What follows are compounds tested on phosphorylation of Serine 473 in Akt (assay: In Vitro Phospho-Ser473 Akt Assay in MDA-MB-468 cells). Details: Homo sapiens, MDA-MB-468, read-out: IC50 values against mTOR, phospho-Ser473 Akt assay, MDA-MB-468 cells.
Assay type: cell-based

SMILES	IC50 [nM]
C[C@H]1COCCN1c1nc(N2CCOC[C@@H]2C)c2ccc(-c3ccc(F)c(CNCCO)c3)nc2n1 [Example 4ac]	< 100
C[C@H]1COCCN1c1nc(N2CCOC[C@@H]2C)c2ccc(-c3ccc(F)c(CN4CC[C@@H](O)C4)c3)nc2n1 [Example 4ad]	< 300
C[C@H]1COCCN1c1nc(N2CCOC[C@@H]2C)c2ccc(-c3ccc(F)c(CN(C)C)c3)nc2n1 [Example 4af]	< 100
C[C@H]1COCCN1c1nc(N2CCOC[C@@H]2C)c2ccc(-c3ccc(F)c(CN4CCC[C@@H](O)C4)c3)nc2n1 [Example 4ah]	< 300
CC(C)N(C)Cc1cc(-c2ccc3c(N4CCOC[C@@H]4C)nc(N4CCOC[C@@H]4C)nc3n2)ccc1F [Example 4ai]	< 100
C[C@H]1COCCN1c1nc(N2CCOC[C@@H]2C)c2ccc(-c3ccc(F)c(CN4CC[C@H](O)C4)c3)nc2n1 [Example 4ak]	< 100
COc1ccc(-c2ccc3c(N4CCOC[C@@H]4C)nc(N4CCOC[C@@H]4C)nc3n2)cc1CNC(C)C [Example 4am]	< 100
COc1ccc(-c2ccc3c(N4CCOC[C@@H]4C)nc(N4CCOC[C@@H]4C)nc3n2)cc1CNC1CCCC1 [Example 4an]	< 300
COc1ccc(-c2ccc3c(N4CCOC[C@@H]4C)nc(N4CCOC[C@@H]4C)nc3n2)cc1CNC1CCCCC1 [Example 4ao]	< 100
COc1ccc(-c2ccc3c(N4CCOC[C@@H]4C)nc(N4CCOC[C@@H]4C)nc3n2)cc1CNCc1cccs1 [Example 4ap]	< 300
COc1ccc(-c2ccc3c(N4CCOC[C@@H]4C)nc(N4CCOC[C@@H]4C)nc3n2)cc1CNC1CCOCC1 [Example 4aq]	< 100
COc1ccc(-c2ccc3c(N4CCOC[C@@H]4C)nc(N4CCOC[C@@H]4C)nc3n2)cc1CNCCC(C)(C)C [Example 4as]	< 100
COc1ccc(-c2ccc3c(N4CCOC[C@@H]4C)nc(N4CCOC[C@@H]4C)nc3n2)cc1CNCCC(C)C [Example 4at]	< 100
COc1ccc(-c2ccc3c(N4CCOC[C@@H]4C)nc(N4CCOC[C@@H]4C)nc3n2)cc1CNC(C)CC(C)C (stereo partly drawn) [Example 4au]	< 100
CCN(CC)CCCNCc1cc(-c2ccc3c(N4CCOC[C@@H]4C)nc(N4CCOC[C@@H]4C)nc3n2)ccc1OC [Example 4av]	< 300
COc1ccc(-c2ccc3c(N4CCOC[C@@H]4C)nc(N4CCOC[C@@H]4C)nc3n2)cc1CNC1CCCCC1C (stereo partly drawn) [Example 4aw]	< 100
COc1ccc(-c2ccc3c(N4CCOC[C@@H]4C)nc(N4CCOC[C@@H]4C)nc3n2)cc1CNCC1CC1 [Example 4ax]	< 100
CCCCNCc1cc(-c2ccc3c(N4CCOC[C@@H]4C)nc(N4CCOC[C@@H]4C)nc3n2)ccc1OC [Example 4ay]	< 100
COc1ccc(-c2ccc3c(N4CCOC[C@@H]4C)nc(N4CCOC[C@@H]4C)nc3n2)cc1CNCC(C)C [Example 4az]	< 100
C[C@H]1COCCN1c1nc(N2CCOC[C@@H]2C)c2ccc(-c3ccc(CN)cc3)nc2n1 [Example 4b]	< 100
COc1ccc(-c2ccc3c(N4CCOC[C@@H]4C)nc(N4CCOC[C@@H]4C)nc3n2)cc1CNCCO [Example 4ba]	< 100
COCCNCc1cc(-c2ccc3c(N4CCOC[C@@H]4C)nc(N4CCOC[C@@H]4C)nc3n2)ccc1OC [Example 4bb]	< 100
COc1ccc(-c2ccc3c(N4CCOC[C@@H]4C)nc(N4CCOC[C@@H]4C)nc3n2)cc1CNC1CCC(C)CC1 (stereo partly drawn) [Example 4bc]	< 100
COc1ccc(CCNCc2cc(-c3ccc4c(N5CCOC[C@@H]5C)nc(N5CCOC[C@@H]5C)nc4n3)ccc2OC)cc1 [Example 4bd]	< 100
COc1ccc(-c2ccc3c(N4CCOC[C@@H]4C)nc(N4CCOC[C@@H]4C)nc3n2)cc1CNCCc1cnc[nH]1 [Example 4be]	< 100

Same assay, conditions: Homo sapiens, MDA-MB-468, read-out: IC50 values against mTOR, phospho-Ser473 Akt assay, MDA-MB-468 cells, upper bound

SMILES	IC50 [nM]
C[C@H]1COCCN1c1nc(N2CCOC[C@@H]2C)c2ccc(-c3ccc(F)c(CNCCF)c3)nc2n1 [Example 4ab]	< 1000
COCCN(C)Cc1cc(-c2ccc3c(N4CCOC[C@@H]4C)nc(N4CCOC[C@@H]4C)nc3n2)ccc1F [Example 4aj]	< 1000
